According to the supplement of paper PMC10627819:

Key:
[1] = system: S. aureus Newman; experiment: Bliss interaction score (quartile over a dose matrix) (fitness difference); higher = more antagonism (negative = synergy)
How it was run: (§1)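 Values were capped at 1 after dividing OD595 at stationary-phase entry by the plate's robust no-drug mean. This ratio is fitness, and single-drug fitness was inferred from the combination data. The Bliss score is observed minus product-expected fitness, given as quartiles over technical, biological and donor/recipient replicates.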

[2] = system: S. aureus DSM 20231; experiment: as above
How it was run: as §1

[3] = system: B. subtilis 168; experiment: as above
How it was run: as §1

[4] = system: S. pneumoniae D39V; experiment: as above
How it was run: as §1

[5] = system: B. subtilis 168; experiment: fitness (endpoint OD595 vs no drug) (fraction); higher = more growth
How it was run: (§2)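 Volumes were 30 µl per well, or 55 µl for S. pneumoniae, in 384-well plates inoculated at OD595 0.01. Media were TSB, LB Lennox or CY at 37 °C, and OD595 was read every 30 min for 14 h with first-reading background subtraction. Fitness is the ratio of optical density at stationary-phase entry to the robust mean of no-drug controls. That ratio is capped at 1.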

[6] = system: S. pneumoniae D39V; experiment: as above
How it was run: as §2
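Wherever Bliss interaction score (quartile over a dose matrix) is given: first quartile when negative (synergy) and third quartile when positive (antagonism).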

CC[C@H]1OC(=O)[C@H](C)[C@@H](O[C@H]2C[C@@](C)(OC)[C@@H](O)[C@H](C)O2)[C@H](C)[C@@H](O[C@@H]2O[C@H](C)C[C@H](N(C)C)[C@H]2O)[C@](C)(O)C[C@@H](C)CN(C)[C@H](C)[C@@H](O)[C@]1(C)O [Azithromycin] + CN(C)C(=O)C(CCN1CCC(O)(c2ccc(Cl)cc2)CC1)(c1ccccc1)c1ccccc1 [Loperamide]
Details	Bliss interaction score
[1]	0.101
[2]	0.344
[3]	0.137
[4]	0.131

Details	fitness
[5], first compound 1 µg/mL, partner 50 µg/mL	0.041

CC1=C(C(=O)O)N2C(=O)[C@@H](NC(=O)[C@H](N)c3ccccc3)[C@H]2SC1 [Cephalexin] + CN(C)C(=O)C(CCN1CCC(O)(c2ccc(Cl)cc2)CC1)(c1ccccc1)c1ccccc1 [Loperamide]
Details	Bliss interaction score
[1]	0.0814
[2]	0.116
[3]	-0.0893
[4]	-0.129

Details	fitness
[5], first compound 0.125 µg/mL, partner 25 µg/mL	0.819
[5], first compound 0.125 µg/mL, partner 50 µg/mL	0.0465
[5], first compound 0.125 µg/mL, partner 100 µg/mL	0.0315
[5], first compound 0.25 µg/mL, partner 25 µg/mL	0.803
[5], first compound 0.25 µg/mL, partner 50 µg/mL	0.039
[5], first compound 0.25 µg/mL, partner 100 µg/mL	0.025
[5], first compound 0.5 µg/mL, partner 25 µg/mL	0.712
[5], first compound 0.5 µg/mL, partner 50 µg/mL	0.0372
[5], first compound 0.5 µg/mL, partner 100 µg/mL	0.0277
[6], first compound 2 µg/mL, partner 34.28 µg/mL	0.165
[6], first compound 4 µg/mL, partner 17.14 µg/mL	0.0474
[6], first compound 4 µg/mL, partner 34.28 µg/mL	0.0181

fitness, [6], one replicate
Details	first compound 0.125 µg/mL	first compound 0.25 µg/mL	first compound 0.5 µg/mL	first compound 1 µg/mL	first compound 2 µg/mL	first compound 4 µg/mL
partner 20 µg/mL	≥ 1	≥ 1	≥ 1	–	–	–
partner 40 µg/mL	≥ 1	0.995	0.99	–	–	–
partner 68.57 µg/mL	–	–	–	0.53	0.15	0.0031
partner 80 µg/mL	0.753	0.784	0.612	–	–	–

CC1=C(C(=O)O)N2C(=O)[C@@H](NC(=O)[C@H](N)c3ccccc3)[C@H]2SC1 [Cephalexin] + CCC(C)C1C(=O)NC(=C)C(=O)NC(C(=O)NC(CSCC(C(=O)N1)NC(=O)/C(=C/C)/NC(=O)C(C(C)CC)N)C(=O)NC2C(SCC(NC(=O)CNC(=O)C3CCCN3C2=O)C(=O)NC(CCCCN)C(=O)NC4C(SCC(NC(=O)CNC(=O)C(NC(=O)C(NC(=O)C(NC(=O)CNC4=O)C)CC(C)C)CCSC)C(=O)NC(CC(=O)N)C(=O)NC(CCSC)C(=O)NC(CCCCN)C(=O)NC5C(SCC6C(=O)NC(C(=O)NC(CSC(C(C(=O)N6)NC(=O)C(NC5=O)C)C)C(=O)NC(CO)C(=O)NC(C(C)CC)C(=O)NC(CC7=CN=CN7)C(=O)NC(C(C)C)C(=O)NC(=C)C(=O)NC(CCCCN)C(=O)O)CC8=CN=CN8)C)C)C)CC(C)C [Nisin]
main component drawn
Details	Bliss interaction score
[1]	0.0391
[2]	0.0845
[3]	0.0739
[4]	-0.0433

fitness, one replicate, main component drawn
Details	first compound 0.125 µg/mL	first compound 0.25 µg/mL	first compound 0.5 µg/mL	first compound 1 µg/mL
[5], partner 0.5 µg/mL	0.827	0.849	0.85	–
[5], partner 1 µg/mL	0.819	0.833	0.845	–
[5], partner 1.25 µg/mL	–	≥ 1	0.914	0.959
[5], partner 1.6 µg/mL	–	0.8	0.735	0.85
[5], partner 2 µg/mL	0.564	0.546	0.643	–
[5], partner 2.5 µg/mL	–	0.323	0.638	0.621
[5], partner 3.2 µg/mL	–	0.0408	0.05	0.038
[5], partner 4 µg/mL	0.0357	0.0253	0.0342	–
[5], partner 5 µg/mL	–	0.0428	0.0078	0.0511
[5], partner 6.4 µg/mL	–	0.055	0.052	0.0405
[5], partner 8 µg/mL	0.0286	0.0256	0.0219	–
[5], partner 16 µg/mL	0.0223	0.0191	0.051	–
[6], partner 1.6 µg/mL	0.111	0.067	0.12	–
[6], partner 3.2 µg/mL	0.0257	0.0254	0.0215	–
[6], partner 6.4 µg/mL	0.0326	0.0252	0.0194	–

fitness, [6], main component drawn
Details	first compound 1 µg/mL	first compound 2 µg/mL	first compound 4 µg/mL
partner 0.4275 µg/mL	–	–	0.0461
partner 0.855 µg/mL	–	0.0896	0.05
partner 1.71 µg/mL	0.0562	0.0571	0.0769

CC[C@H]1OC(=O)[C@H](C)[C@@H](O[C@H]2C[C@@](C)(OC)[C@@H](O)[C@H](C)O2)[C@H](C)[C@@H](O[C@@H]2O[C@H](C)C[C@H](N(C)C)[C@H]2O)[C@](C)(O)C[C@@H](C)CN(C)[C@H](C)[C@@H](O)[C@]1(C)O [Azithromycin] + CO[C@@H]1[C@@H](OC(N)=O)[C@@H](O)[C@H](Oc2ccc3c(O)c(NC(=O)c4ccc(O)c(CC=C(C)C)c4)c(=O)oc3c2C)OC1(C)C [Novobiocin]
Details	Bliss interaction score
[1]	0.157
[2]	0.0496
[3]	0.0746
[4]	-0.0647

fitness, [5]
Details	partner 0.0125 µg/mL	partner 0.025 µg/mL	partner 0.05 µg/mL	partner 0.1 µg/mL	partner 0.2 µg/mL
first compound 0.25 µg/mL	0.897	0.888	0.894	0.954	0.931
first compound 0.5 µg/mL	0.867	0.814	0.868	0.865	0.878
first compound 1 µg/mL	0.642	0.63	–	–	–

fitness, [5], one replicate
Details	first compound 0.5 µg/mL	first compound 1 µg/mL	first compound 2 µg/mL
partner 0.125 µg/mL	0.772	0.765	0.347
partner 0.25 µg/mL	0.781	0.597	0.167
partner 0.5 µg/mL	0.507	0.473	0.0776

CNC(C)C1CCC(N)C(OC2C(N)CC(N)C(OC3OCC(C)(O)C(NC)C3O)C2O)O1 (centres undefined) [Gentamicin] + CCC[C@@H]1C[C@@H](C(=O)N[C@@H]([C@H]2O[C@H](SC)[C@H](O)[C@@H](O)[C@H]2O)[C@@H](C)O)N(C)C1 [Lincomycin]
main component drawn
Details	Bliss interaction score
[1]	0.0735
[2]	0.106
[3]	0.1
[4]	-0.0859

fitness, main component drawn
Details	partner 0.1 µg/mL	partner 0.2 µg/mL	partner 0.215 µg/mL	partner 0.4 µg/mL	partner 0.43 µg/mL	partner 0.8 µg/mL	partner 0.86 µg/mL
[5], first compound 0.0625 µg/mL	0.851	0.858	–	0.911	–	–	–
[5], first compound 0.25 µg/mL	0.038	0.0459	–	0.121	–	–	–
[6], first compound 2 µg/mL	–	0.465	0.858	0.285	0.795	0.0324	0.558
[6], first compound 4 µg/mL	–	0.455	0.843	0.257	0.716	0.0339	0.397
[6], first compound 8 µg/mL	–	0.389	0.834	0.212	0.741	0.0377	0.41

fitness, [5], one replicate, main component drawn
Details	first compound 0.0625 µg/mL	first compound 0.125 µg/mL	first compound 0.25 µg/mL
partner 0.8 µg/mL	0.989	0.881	0.32
partner 1.6 µg/mL	0.921	0.895	0.367

CNC(C)C1CCC(N)C(OC2C(N)CC(N)C(OC3OCC(C)(O)C(NC)C3O)C2O)O1 (centres undefined) [Gentamicin] + CC(=O)NC[C@H]1CN(c2ccc(N3CCOCC3)c(F)c2)C(=O)O1 [Linezolid]
main component drawn
Details	Bliss interaction score
[1]	0.0901
[2]	0.0779
[3]	0.144
[4]	-0.136

[5], partner 0.0625 µg/mL, one replicate, main component drawn
Details	fitness
first compound 0.0625 µg/mL	0.827
first compound 0.125 µg/mL	0.0748
first compound 0.25 µg/mL	0.0626

fitness, [6], main component drawn
Details	partner 0.105 µg/mL	partner 0.2 µg/mL	partner 0.21 µg/mL	partner 0.4 µg/mL	partner 0.42 µg/mL	partner 0.8 µg/mL
first compound 2 µg/mL	0.881	0.414	0.767	0.228	0.636	0.0665
first compound 4 µg/mL	0.908	0.408	0.759	0.215	0.6	0.0715
first compound 8 µg/mL	0.843	0.37	0.758	0.212	0.579	0.0595

CC1=C(C(=O)O)N2C(=O)[C@@H](NC(=O)[C@H](N)c3ccccc3)[C@H]2SC1 [Cephalexin] + CCC[C@@H]1C[C@@H](C(=O)N[C@@H]([C@H]2O[C@H](SC)[C@H](O)[C@@H](O)[C@H]2O)[C@@H](C)O)N(C)C1 [Lincomycin]
Details	Bliss interaction score
[1]	0.0797
[2]	0.101
[3]	-0.0209
[4]	0.159

Details	fitness
[5], first compound 0.125 µg/mL, partner 0.1 µg/mL	0.901
[5], first compound 0.125 µg/mL, partner 0.2 µg/mL	0.876
[5], first compound 0.125 µg/mL, partner 0.4 µg/mL	0.852
[5], first compound 0.25 µg/mL, partner 0.1 µg/mL	0.941
[5], first compound 0.25 µg/mL, partner 0.2 µg/mL	0.937
[5], first compound 0.25 µg/mL, partner 0.4 µg/mL	0.913
[5], first compound 0.5 µg/mL, partner 0.1 µg/mL	0.939
[5], first compound 0.5 µg/mL, partner 0.2 µg/mL	0.901
[5], first compound 0.5 µg/mL, partner 0.4 µg/mL	0.852
[6], first compound 1 µg/mL, partner 0.215 µg/mL	0.832
[6], first compound 1 µg/mL, partner 0.43 µg/mL	0.716
[6], first compound 1 µg/mL, partner 0.86 µg/mL	0.403
[6], first compound 2 µg/mL, partner 0.43 µg/mL	0.373
[6], first compound 2 µg/mL, partner 0.86 µg/mL	0.176
[6], first compound 4 µg/mL, partner 0.215 µg/mL	0.0258
[6], first compound 4 µg/mL, partner 0.43 µg/mL	0.0283
[6], first compound 4 µg/mL, partner 0.86 µg/mL	0.0358

fitness, one replicate
Details	partner 0.1 µg/mL	partner 0.2 µg/mL	partner 0.4 µg/mL	partner 0.8 µg/mL
[5], first compound 1 µg/mL	≥ 1	≥ 1	≥ 1	–
[6], first compound 0.125 µg/mL	–	0.722	0.663	0.206
[6], first compound 0.25 µg/mL	–	0.759	0.643	0.304
[6], first compound 0.5 µg/mL	–	0.786	0.702	0.288

CC[C@H]1OC(=O)[C@H](C)[C@@H](O[C@H]2C[C@@](C)(OC)[C@@H](O)[C@H](C)O2)[C@H](C)[C@@H](O[C@@H]2O[C@H](C)C[C@H](N(C)C)[C@H]2O)[C@](C)(O)C[C@@H](C)CN(C)[C@H](C)[C@@H](O)[C@]1(C)O [Azithromycin] + C[C@H]1COc2c(N3CCN(C)CC3)c(F)cc3c(=O)c(C(=O)O)cn1c23 [Levofloxacin]
Details	Bliss interaction score
[1]	0.0787
[2]	0.0911
[3]	0.0413
[4]	0.0528

fitness, [5]
Details	partner 0.002 µg/mL	partner 0.0039 µg/mL	partner 0.0078 µg/mL	partner 0.0312 µg/mL	partner 0.0625 µg/mL	partner 0.125 µg/mL
first compound 0.25 µg/mL	0.96	0.945	0.969	0.0317	0.0311	0.0281
first compound 0.5 µg/mL	0.848	0.808	0.862	0.0211	0.0396	0.0302
first compound 1 µg/mL	–	–	–	0.0198	0.0226	0.0241

fitness, [5], one replicate
Details	first compound 0.5 µg/mL	first compound 1 µg/mL	first compound 2 µg/mL
partner 0.001 µg/mL	0.925	0.906	0.209
partner 0.002 µg/mL	–	–	0.029
partner 0.0039 µg/mL	–	–	0.0299
